ChEMBL document CHEMBL2057208, “Benzoylbenzimidazole-based selective inhibitors targeting Cryptosporidium parvum and Toxoplasma gondii calcium-dependent protein kinase-1” (Bioorg Med Chem Lett, 2012)
pEC50, pIC50: −log10 of the molar value. Activity calls are given as the source filed them. The calls are words filed in the database; no cut-off is given here.

Columns and labels:
Cryptosporidium parvum = assay: Antiparasitic activity against Cryptosporidium parvum up to 1 uM; format: functional, organism-based
Toxoplasma gondii = assay: Antiparasitic activity against Toxoplasma gondii up to 1 uM; format: functional, organism-based
[1] = target: Tyrosine-protein kinase ABL1 (Homo sapiens, UniProt P00519); assay: Inhibition of human ABL
[2] = Inhibition of Cryptosporidium parvum CDPK1
[3] = target: T1, Calmodulin-domain protein kinase 1 (Toxoplasma gondii, UniProt Q9BJF5); assay: Inhibition of Toxoplasma gondii CDPK1
T1 sequence (Q9BJF5 whole entry): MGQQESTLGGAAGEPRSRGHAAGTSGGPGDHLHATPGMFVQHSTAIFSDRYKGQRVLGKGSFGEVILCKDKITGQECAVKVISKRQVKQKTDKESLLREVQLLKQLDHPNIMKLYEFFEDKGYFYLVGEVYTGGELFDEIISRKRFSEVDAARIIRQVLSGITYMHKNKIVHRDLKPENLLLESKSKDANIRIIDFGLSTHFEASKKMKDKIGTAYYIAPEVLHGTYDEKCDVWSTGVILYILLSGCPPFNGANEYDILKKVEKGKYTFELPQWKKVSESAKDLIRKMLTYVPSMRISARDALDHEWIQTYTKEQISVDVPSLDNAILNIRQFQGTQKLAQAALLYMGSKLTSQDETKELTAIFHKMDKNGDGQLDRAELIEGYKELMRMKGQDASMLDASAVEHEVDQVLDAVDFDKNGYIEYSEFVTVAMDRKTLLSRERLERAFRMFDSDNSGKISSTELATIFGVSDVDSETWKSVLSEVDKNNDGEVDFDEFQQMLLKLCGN

cells = conditions: Homo sapiens, CRL8155
Description: Cytotoxicity against human CRL8155 cells after 48 to 72 hrs by Alamar blue assay

HL-60 = assay: cells; conditions: Homo sapiens
Description: Cytotoxicity against human HL60 cells after 48 to 72 hrs by Alamar blue assay

[4] = target: Proto-oncogene tyrosine-protein kinase Src (Homo sapiens, UniProt P12931); assay: Inhibition of human SRC
Sequence of Proto-oncogene tyrosine-protein kinase Src (P12931 2-536 limits assumed): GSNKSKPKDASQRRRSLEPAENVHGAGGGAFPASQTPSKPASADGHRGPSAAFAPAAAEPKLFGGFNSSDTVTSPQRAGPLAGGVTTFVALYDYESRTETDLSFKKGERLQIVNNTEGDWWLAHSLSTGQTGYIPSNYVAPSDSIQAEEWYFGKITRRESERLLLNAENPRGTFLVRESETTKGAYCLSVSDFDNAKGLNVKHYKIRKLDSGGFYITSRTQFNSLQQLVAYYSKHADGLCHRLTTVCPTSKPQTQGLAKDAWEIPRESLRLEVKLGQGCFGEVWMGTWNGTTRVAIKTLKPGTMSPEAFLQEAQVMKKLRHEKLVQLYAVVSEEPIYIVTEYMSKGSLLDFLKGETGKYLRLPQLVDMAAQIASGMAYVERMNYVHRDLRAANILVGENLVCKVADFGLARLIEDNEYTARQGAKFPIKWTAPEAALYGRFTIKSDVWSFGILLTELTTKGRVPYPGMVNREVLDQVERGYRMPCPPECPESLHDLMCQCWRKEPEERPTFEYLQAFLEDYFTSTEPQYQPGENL

Sequence of Tyrosine-protein kinase ABL1 (P00519 whole entry): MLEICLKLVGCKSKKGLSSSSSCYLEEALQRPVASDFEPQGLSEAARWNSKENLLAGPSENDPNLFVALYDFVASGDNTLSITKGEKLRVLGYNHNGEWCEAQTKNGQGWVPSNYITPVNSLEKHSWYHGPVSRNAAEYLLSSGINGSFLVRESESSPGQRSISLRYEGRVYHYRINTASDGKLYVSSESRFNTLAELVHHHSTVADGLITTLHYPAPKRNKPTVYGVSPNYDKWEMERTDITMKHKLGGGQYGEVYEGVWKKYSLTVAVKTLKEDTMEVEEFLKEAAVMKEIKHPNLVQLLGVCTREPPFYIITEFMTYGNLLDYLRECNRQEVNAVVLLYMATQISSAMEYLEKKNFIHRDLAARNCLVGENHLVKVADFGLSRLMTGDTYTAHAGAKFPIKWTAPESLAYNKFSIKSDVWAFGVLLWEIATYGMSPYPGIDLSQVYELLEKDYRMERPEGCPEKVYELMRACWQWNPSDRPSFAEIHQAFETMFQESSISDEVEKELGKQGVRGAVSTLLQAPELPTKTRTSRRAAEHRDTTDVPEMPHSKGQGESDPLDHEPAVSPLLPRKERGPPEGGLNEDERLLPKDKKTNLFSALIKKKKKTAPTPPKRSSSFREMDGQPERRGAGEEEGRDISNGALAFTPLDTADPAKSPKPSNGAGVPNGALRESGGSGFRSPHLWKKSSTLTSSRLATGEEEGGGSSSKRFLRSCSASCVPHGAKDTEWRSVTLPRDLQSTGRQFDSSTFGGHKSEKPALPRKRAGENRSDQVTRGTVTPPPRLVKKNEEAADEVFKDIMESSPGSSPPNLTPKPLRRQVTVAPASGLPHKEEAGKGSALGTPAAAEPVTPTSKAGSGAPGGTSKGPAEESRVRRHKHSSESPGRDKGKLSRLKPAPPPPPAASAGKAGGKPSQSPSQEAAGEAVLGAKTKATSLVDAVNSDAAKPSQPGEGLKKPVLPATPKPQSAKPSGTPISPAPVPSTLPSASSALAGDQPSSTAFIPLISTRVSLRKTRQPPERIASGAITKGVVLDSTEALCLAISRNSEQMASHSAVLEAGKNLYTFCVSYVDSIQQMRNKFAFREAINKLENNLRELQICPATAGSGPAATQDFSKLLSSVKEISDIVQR

Row | Compound | Activity (Cryptosporidium parvum) | Activity (Toxoplasma gondii) | pIC50 [1] | pIC50 [2] | pIC50 [3] | pEC50 (cells) | pEC50 (HL-60) | pIC50 [4]
1 | O=C(NCCC1CCNCC1)Nc1nc2ccc(C(=O)c3ccccc3)cc2[nH]1 | inactive | inactive | 7.00 | 6.74 | 6.89 | < 4.52 | < 4.52 | –
2 | CN1CCN(CCCn2c(N)nc3ccc(C(=O)c4ccccc4)cc32)CC1 | inactive | inactive | – | 6.77 | 6.74 | < 4.52 | < 4.52 | –
3 | Nc1nc2ccc(C(=O)c3ccccc3)cc2n1CC1CCNCC1 | inactive | inactive | < 5.00 | – | – | < 4.52 | < 4.52 | < 5.00
4 | CN1CCC(Cn2c(N)nc3ccc(C(=O)c4ccccc4)cc32)CC1 | inactive | inactive | – | 6.59 | 6.82 | < 4.52 | < 4.52 | –
5 | Nc1nc2ccc(C(=O)c3ccccc3)cc2n1CCc1ccc(F)cc1 | inactive | inactive | – | 6.02 | 6.72 | < 4.52 | < 4.52 | –
6 | COC(=O)Nc1nc2ccc(C(O)c3ccccc3)cc2[nH]1 (stereo not given) | – | – | – | < 5.52 | < 5.52 | – | – | –
7 | Nc1nc2ccc(C(=O)c3ccccc3)cc2n1CC[C@@H]1CCCN1 | inactive | inactive | < 5.00 | 7.52 | 7.54 | < 4.52 | < 4.52 | < 5.00
8 | O=C(NCCCCO)Nc1nc2ccc(C(=O)c3ccccc3)cc2[nH]1 | inactive | inactive | – | 6.23 | 6.42 | < 4.52 | < 4.52 | –
9 | COC(=O)Nc1nc2ccc(C(=O)c3ccccc3)cc2[nH]1 [MEBENDAZOLE] | – | – | 5.30 | – | 6.17 | – | – | < 5.00
10 | Nc1nc2ccc(C(=O)c3ccccc3)cc2n1C[C@@H]1CCCN1 | inactive | inactive | – | 6.59 | 6.39 | < 4.52 | < 4.52 | –
11 | CN1CCC(CCn2c(N)nc3ccc(C(=O)c4ccccc4)cc32)CC1 | inactive | inactive | < 5.00 | 7.59 | 7.52 | < 4.52 | < 4.52 | < 5.00
12 | COC(=O)Nc1nc2cc(C(=O)c3ccccc3)ccc2[nH]1 [MEBENDAZOLE] | inactive | inactive | – | 6.04 | – | < 4.52 | < 4.52 | –
13 | Nc1nc2ccc(C(=O)c3ccccc3)cc2n1CCC1CCNCC1 | inactive | inactive | < 5.00 | 7.77 | 7.70 | < 4.52 | < 4.52 | < 5.00
14 | CN1CCC[C@H]1CCn1c(N)nc2ccc(C(=O)c3ccccc3)cc21 | inactive | inactive | – | 7.15 | 7.17 | < 4.52 | < 4.52 | –
15 | Nc1nc2ccc(C(=O)c3ccccc3)cc2[nH]1 | inactive | inactive | – | 6.22 | 6.64 | < 4.52 | < 4.52 | < 5.00
16 | NCCC(=O)Nc1nc2ccc(C(=O)c3ccccc3)cc2n1CC1CCNCC1 | inactive | inactive | – | 6.07 | 6.24 | < 4.52 | < 4.52 | < 5.00
17 | NCCC(=O)Nc1nc2ccc(C(=O)c3ccccc3)cc2[nH]1 | inactive | inactive | – | 6.89 | 6.74 | < 4.52 | < 4.52 | –
18 | N[C@@H](Cc1c[nH]cn1)C(=O)Nc1nc2ccc(C(=O)c3ccccc3)cc2[nH]1 | inactive | inactive | – | 6.49 | 6.85 | < 4.52 | < 4.52 | –
19 | NCCCCCCC(=O)Nc1nc2ccc(C(=O)c3ccccc3)cc2[nH]1 | inactive | inactive | – | 7.14 | 7.66 | < 4.52 | < 4.52 | –
20 | NCCCCNC(=O)Nc1nc2ccc(C(=O)c3ccccc3)cc2[nH]1 | inactive | inactive | – | 6.82 | 6.85 | < 4.52 | < 4.52 | –

Row | Compound | Activity (Cryptosporidium parvum) | Activity (Toxoplasma gondii) | pIC50 [1] | pIC50 [2] | pIC50 [3] | pEC50 (cells) | pEC50 (HL-60) | pIC50 [4]
21 | O=C(CCCC1CCNCC1)Nc1nc2ccc(C(=O)c3ccccc3)cc2[nH]1 | inactive | inactive | – | 7.09 | 7.74 | < 4.52 | < 4.52 | –
22 | CC(C)Cn1c(N)nc2ccc(C(=O)c3ccccc3)cc21 | inactive | inactive | – | 6.64 | 7.17 | < 4.52 | < 4.52 | –
23 | O=C(NCCO)Nc1nc2ccc(C(=O)c3ccccc3)cc2[nH]1 | – | – | – | – | 6.89 | – | – | –
24 | Nc1nc2ccc(C(=O)c3ccccc3)cc2n1C[C@H]1CCNC1 | inactive | inactive | – | 6.92 | 6.92 | < 4.52 | < 4.52 | –
25 | O=C(c1ccccc1)c1ccc2nc(NCCO)[nH]c2c1 | inactive | inactive | – | < 5.52 | < 5.52 | < 4.52 | < 4.52 | –
26 | O=C(CC1CCNCC1)Nc1nc2ccc(C(=O)c3ccccc3)cc2[nH]1 | inactive | inactive | – | 6.92 | 7.22 | < 4.52 | < 4.52 | –
27 | NCCCC(=O)Nc1nc2ccc(C(=O)c3ccccc3)cc2[nH]1 | inactive | inactive | – | 7.04 | 7.16 | < 4.52 | < 4.52 | –
28 | O=C(CCC1CCNCC1)Nc1nc2ccc(C(=O)c3ccccc3)cc2[nH]1 | inactive | inactive | – | 6.96 | 7.39 | < 4.52 | < 4.52 | –
29 | O=C(c1ccccc1)c1ccc2nc(NCCC3CCCNC3)[nH]c2c1 (stereo not given) | inactive | inactive | – | < 5.52 | < 5.52 | < 4.52 | < 4.52 | –
30 | CC(C)(C)Cn1c(N)nc2ccc(C(=O)c3ccccc3)cc21 | inactive | inactive | – | 6.89 | 7.20 | < 4.52 | < 4.52 | –
31 | O=C(c1ccccc1)c1ccc2nc(NC(=O)[C@@H]3CCCN3)[nH]c2c1 | inactive | inactive | – | 6.89 | 6.80 | < 4.52 | < 4.52 | –
32 | O=C(NCCC1CCCNC1)Nc1nc2ccc(C(=O)c3ccccc3)cc2[nH]1 (stereo not given) | inactive | inactive | – | 6.80 | 6.92 | < 4.52 | < 4.52 | –
33 | O=C(NCCO)Nc1nc2cc(C(=O)c3ccccc3)ccc2[nH]1 | inactive | inactive | – | 6.74 | – | < 4.52 | < 4.52 | –
34 | Nc1nc2ccc(C(=O)c3ccccc3)cc2n1CCN1CCCCC1 | inactive | inactive | – | 6.52 | 6.80 | < 4.52 | < 4.52 | –
35 | Nc1nc2ccc(C(=O)c3ccccc3)cc2n1CCc1ccccn1 | inactive | inactive | – | 6.08 | 6.59 | < 4.52 | < 4.52 | –
36 | Nc1nc2ccc(C(=O)c3ccccc3)cc2n1CC[C@H]1CCCN1 | inactive | inactive | – | 7.02 | 7.19 | < 4.52 | < 4.52 | –
37 | N[C@@H](Cc1ccc(O)cc1)C(=O)Nc1nc2ccc(C(=O)c3ccccc3)cc2[nH]1 | inactive | inactive | – | 5.85 | 6.28 | < 4.52 | < 4.52 | –
38 | Nc1nc2ccc(C(=O)c3ccccc3)cc2n1CCN1CCOCC1 | inactive | inactive | – | 6.41 | 6.66 | < 4.52 | < 4.52 | –
39 | Nc1nc2ccc(C(=O)c3ccccc3)cc2n1C[C@H]1CCCN1 | inactive | inactive | – | 6.06 | 6.00 | < 4.52 | < 4.52 | –
40 | CN1CCC[C@@H]1Cn1c(N)nc2ccc(C(=O)c3ccccc3)cc21 | inactive | inactive | – | 6.10 | 6.18 | < 4.52 | < 4.52 | –
